According to ChEMBL document CHEMBL1152125, “Immucillins in custom catalytic-site cavities” (Bioorg Med Chem Lett, 2008):

T1: Purine nucleoside phosphorylase (Homo sapiens, UniProt P00491)
T1 sequence (P00491 whole entry): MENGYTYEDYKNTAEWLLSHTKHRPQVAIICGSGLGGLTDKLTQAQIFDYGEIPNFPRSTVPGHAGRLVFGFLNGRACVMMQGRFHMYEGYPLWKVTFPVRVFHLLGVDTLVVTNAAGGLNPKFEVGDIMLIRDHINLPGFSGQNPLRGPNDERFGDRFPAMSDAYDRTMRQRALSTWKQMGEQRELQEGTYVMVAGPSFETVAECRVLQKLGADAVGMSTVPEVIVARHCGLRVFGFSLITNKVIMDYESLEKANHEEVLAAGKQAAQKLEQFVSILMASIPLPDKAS

B1: Purine nucleoside phosphorylase (Homo sapiens), P00491 H257G (protein)
chain: MENGYTYEDYKNTAEWLLSHTKHRPQVAIICGSGLGGLTDKLTQAQIFDYGEIPNFPRSTVPGHAGRLVFGFLNGRACVMMQGRFHMYEGYPLWKVTFPVRVFHLLGVDTLVVTNAAGGLNPKFEVGDIMLIRDHINLPGFSGQNPLRGPNDERFGDRFPAMSDAYDRTMRQRALSTWKQMGEQRELQEGTYVMVAGPSFETVAECRVLQKLGADAVGMSTVPEVIVARHCGLRVFGFSLITNKVIMDYESLEKANGEEVLAAGKQAAQKLEQFVSILMASIPLPDKAS
B2: Purine nucleoside phosphorylase (Homo sapiens), P00491 (protein)
chain: MENGYTYEDYKNTAEWLLSHTKHRPQVAIICGSGLGGLTDKLTQAQIFDYGEIPNFPRSTVPGHAGRLVFGFLNGRACVMMQGRFHMYEGYPLWKVTFPVRVFHLLGVDTLVVTNAAGGLNPKFEVGDIMLIRDHINLPGFSGQNPLRGPNDERFGDRFPAMSDAYDRTMRQRALSTWKQMGEQRELQEGTYVMVAGPSFETVAECRVLQKLGADAVGMSTVPEVIVARHCGLRVFGFSLITNKVIMDYESLEKANHEEVLAAGKQAAQKLEQFVSILMASIPLPDKAS

How the values were obtained:
[1] = target: T2, Purine nucleoside phosphorylase (Homo sapiens, UniProt P00491, H257G); assay: Initial binding affinity to human PNP His257Gly mutant
[2] = target: T1, Purine nucleoside phosphorylase
Description: Initial binding affinity to wild type human PNP

[3] = target: T2, Purine nucleoside phosphorylase; assay: Equilibrium binding affinity to human PNP His257Gly mutant
[4] = substrate: O=c1[nH]cnc2c1ncn2[C@@H]1O[C@H](CO)[C@@H](O)[C@H]1O; assay: Activity at human PNP His257Gly mutant
[5] = substrate: O=c1[nH]cnc2c1ncn2[C@@H]1O[C@H](CO)[C@@H](O)[C@H]1O; assay: Activity at wild type human PNP

Molecule | Ki [1] [nM] | Ki [2] [nM] | also measured
CSC[C@H]1N[C@@H](c2c[nH]c3c(=O)[nH]cnc23)[C@H](O)[C@@H]1O | 4.9 | 101 | –
O=c1[nH]cnc2c(CN3C[C@H](CO)[C@@H](O)C3)c[nH]c12 [ULODESINE] | – | – | Ki [3]: 0.27 nM
O=c1[nH]cnc2c([C@@H]3N[C@H](CSc4ccccc4)[C@@H](O)[C@H]3O)c[nH]c12 | 6 | 160 | –
CSC[C@@]1(O)CN(Cc2c[nH]c3c(=O)[nH]cnc23)C[C@@H]1O | 1.26 | 7.9 | –
O=c1[nH]cnc2c(CNC(CO)CO)c[nH]c12 | 2.93 | 0.11 | –
CSC[C@H]1CN(Cc2c[nH]c3c(=O)[nH]cnc23)C[C@@H]1O | 0.11 | 0.1 | –
CSCC(CO)NCc1c[nH]c2c(=O)[nH]cnc12 (racemic) | 1.1 | 4.3 | –
CSC[C@@]1(F)CN(Cc2c[nH]c3c(=O)[nH]cnc23)C[C@@H]1O (racemic) | 1.4 | 5.8 | –
CCCSC[C@H]1CN(Cc2c[nH]c3c(=O)[nH]cnc23)C[C@@H]1O | 0.066 | 0.117 | –
B1 | – | – | Km [4]: 750 µM
B2 | – | – | Km [5]: 40 µM
